From US20150376198A1, “MODULATORS OF VASOPRESSIN RECEPTORS WITH THERAPEUTIC POTENTIAL” (priority 2013, published 2015)
pIC50: −log10 of the molar value.

The compounds below were run against human Arginine Vasopressin Receptor 1a (AVPR1a) (Homo sapiens, UniProt P37288) (assay: cell-based). Conditions: not given.
Chain of human Arginine Vasopressin Receptor 1a (AVPR1a) (P37288 whole entry): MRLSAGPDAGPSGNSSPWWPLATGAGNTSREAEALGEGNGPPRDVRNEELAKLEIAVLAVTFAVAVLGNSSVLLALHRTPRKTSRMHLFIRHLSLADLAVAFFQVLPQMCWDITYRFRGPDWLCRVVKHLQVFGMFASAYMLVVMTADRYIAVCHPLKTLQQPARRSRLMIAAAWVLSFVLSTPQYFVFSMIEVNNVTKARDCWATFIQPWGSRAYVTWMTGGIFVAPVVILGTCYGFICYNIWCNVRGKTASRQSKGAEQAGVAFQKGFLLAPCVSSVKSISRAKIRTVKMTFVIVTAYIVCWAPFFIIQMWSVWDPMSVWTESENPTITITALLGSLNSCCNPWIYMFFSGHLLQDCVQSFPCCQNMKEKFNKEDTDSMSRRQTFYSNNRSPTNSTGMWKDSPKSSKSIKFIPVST

**Q.** How did the pIC50 turn out when O=C(C1CCN(c2ccc(Cl)cn2)CC1)N(CC1CC1)c1ccc(Cl)cc1 [Compound 141] was run?
**A.** Its pIC50 is 7.40.

**Q.** O=C(C1CCN(c2cc(C(F)(F)F)ccn2)CC1)N(CC1CC1)c1ccc(Cl)cc1 [Compound 179] was tested. Which pIC50 did it give?
**A.** The pIC50 was 7.43.

Same assay, conditions: read-out: V1a-R IC50

**Q.** With O=C(C1CCN(c2ncc(F)cn2)CC1)N(CC1CC1)c1ccc(Cl)cc1 [Compound 168] as the compound, how does the pIC50 read?
**A.** Its pIC50 is 7.04.

**Q.** With Cc1cc(N2CCC(C(=O)N3CCCCc4cc(Cl)ccc43)CC2)nc(C)n1 [Compound 186] as the compound, how does the pIC50 read?
**A.** Its pIC50 is 6.39.

**Q.** How did the pIC50 turn out when N#Cc1ccnc(N2CCC(C(=O)N(CC3CC3)c3ccc(Cl)cc3)CC2)n1 [Compound 170] was run?
**A.** Its pIC50 is 7.02.

**Q.** O=C(C1CCN(c2nccc(C(F)(F)F)n2)CC1)N(CC1CC1)c1ccc(Cl)cc1 [Compound 171] was tested. Which pIC50 did it give?
**A.** The pIC50 was 6.84.

**Q.** Cc1ccnc(N2CCC(C(=O)N(CC3CC3)c3ccc(Cl)cc3)CC2)c1 [Compound 148] was tested. Which pIC50 did it give?
**A.** Its pIC50 is 8.52.

**Q.** How did the pIC50 turn out when Cc1noc(C)c1C(=O)N1CCC(C(=O)N2CCCCc3cc(Cl)ccc32)CC1 [Compound 80] was run?
**A.** The pIC50 was 4.82.

**Q.** O=C(N1CCC(c2ccccc2)CC1)N1CCCCc2cc(Cl)ccc21 [Compound 131] was tested. Which pIC50 did it give?
**A.** The pIC50 was 7.08.

**Q.** O=C(c1cccc(C(F)(F)F)c1)N1CCC(C(=O)N2CCCCc3cc(Cl)ccc32)CC1 [Compound 88] was tested. Which pIC50 did it give?
**A.** The pIC50 was 6.23.

**Q.** With O=C(C1CCN(c2ncccc2Cl)CC1)N(CC1CC1)c1ccc(Cl)cc1 [Compound 144] as the compound, how does the pIC50 read?
**A.** The pIC50 was 7.64.

**Q.** How did the pIC50 turn out when O=C(C1CCN(c2ccccn2)CC1)N(CC1CC1)c1ccc(Cl)cc1 [Compound 154] was run?
**A.** Its pIC50 is 7.82.

**Q.** O=C1Nc2ccccc2C2(CCN(C(=O)N3CCCCc4cc(Cl)ccc43)CC2)O1 [V:292] was tested. Which pIC50 did it give?
**A.** Its pIC50 is 6.52.

**Q.** With O=C(N1CCN(c2ncccc2C(F)(F)F)CC1)N1CCCCc2cc(Cl)ccc21 [Compound 126] as the compound, how does the pIC50 read?
**A.** The pIC50 was 7.27.

**Q.** How did the pIC50 turn out when CCc1cnc(N2CCC(C(=O)N3CCCCc4cc(Cl)ccc43)CC2)nc1 [Compound 182] was run?
**A.** The pIC50 was 7.31.

**Q.** With O=C(C1CCN(c2nc3ccc(Cl)cc3o2)CC1)N(CC1CC1)c1ccc(Cl)cc1 [Compound 207] as the compound, how does the pIC50 read?
**A.** The pIC50 was 6.46.

**Q.** With N#Cc1ccnc(N2CCC(C(=O)N3CCCCc4cc(Cl)ccc43)CC2)c1 [Compound 177] as the compound, how does the pIC50 read?
**A.** Its pIC50 is 7.55.

**Q.** With O=C(N1CCN(c2ccccc2Cl)CC1)N1CCCCc2cc(Cl)ccc21 [Compound 139] as the compound, how does the pIC50 read?
**A.** The pIC50 was 7.46.

**Q.** How did the pIC50 turn out when N#Cc1cc(C(=O)N2CCC(C(=O)N3CCCCc4cc(Cl)ccc43)CC2)ccc1F [Compound 115] was run?
**A.** Its pIC50 is 5.28.

**Q.** How did the pIC50 turn out when Cc1cnc(N2CCC(C(=O)N(CC3CC3)c3ccc(Cl)cc3)CC2)c(F)c1 [Compound 218] was run?
**A.** Its pIC50 is 7.70.

**Q.** How did the pIC50 turn out when O=C(N1CCN(c2ncc(F)cn2)CC1)N(CC1CC1)c1ccc(Cl)cc1 [Compound 155] was run?
**A.** The pIC50 was 6.97.

**Q.** How did the pIC50 turn out when Cc1cccnc1N1CCN(C(=O)N(CC2CC2)c2ccc(Cl)cc2)CC1 [Compound 160] was run?
**A.** Its pIC50 is 8.10.

**Q.** Cc1nc(N2CCC(C(=O)N(CC3CC3)c3ccc(Cl)cc3)CC2)ncc1F [Compound 189] was tested. Which pIC50 did it give?
**A.** The pIC50 was 7.32.

**Q.** With O=C(C1CCN(c2ncc(C3CC3)cn2)CC1)N(CC1CC1)c1ccc(Cl)cc1 [Compound 202] as the compound, how does the pIC50 read?
**A.** The pIC50 was 6.46.

**Q.** CS(=O)(=O)c1ccc(C(=O)N2CCC(C(=O)N3CCCCc4cc(Cl)ccc43)CC2)cc1 [Compound 118] was tested. Which pIC50 did it give?
**A.** The pIC50 was 4.89.

**Q.** N#Cc1ccnc(N2CCC(C(=O)N(CC3CC3)c3ccc(Cl)cc3)CC2)c1 [Compound 173] was tested. Which pIC50 did it give?
**A.** Its pIC50 is 7.20.

**Q.** With Cc1cc(N2CCC(C(=O)N3CCCCc4cc(Cl)ccc43)CC2)ncc1Cl [Compound 220] as the compound, how does the pIC50 read?
**A.** Its pIC50 is 8.15.

**Q.** COc1ccc(C(=O)N2CCC(C(=O)N3CCCCc4cc(Cl)ccc43)CC2)cc1 [Compound 85] was tested. Which pIC50 did it give?
**A.** Its pIC50 is 5.75.

**Q.** How did the pIC50 turn out when Cc1nc(N2CCC(C(=O)N(CC3CC3)c3ccc(Cl)cc3)CC2)c2ccccc2n1 [Compound 191] was run?
**A.** The pIC50 was 7.13.

**Q.** Cc1cc(N2CCC(C(=O)N(CC3CC3)c3ccc(Cl)cc3)CC2)ncc1Cl [Compound 216] was tested. Which pIC50 did it give?
**A.** The pIC50 was 7.39.

**Q.** With Cc1cc(C)nc(N2CCN(C(=O)N(CC3CC3)c3ccc(Cl)cc3)CC2)n1 [Compound 158] as the compound, how does the pIC50 read?
**A.** The pIC50 was 7.62.

**Q.** How did the pIC50 turn out when O=C(C1CCN(c2ccc(Cl)cn2)CC1)N1CCCCc2cc(Cl)ccc21 [Compound 225] was run?
**A.** Its pIC50 is 7.96.

**Q.** With O=C(C1CCN(c2ccc(C(F)(F)F)cn2)CC1)N1CCCCc2cc(Cl)ccc21 [Compound 226] as the compound, how does the pIC50 read?
**A.** Its pIC50 is 7.70.

**Q.** O=C(C1CCN(c2ccc(C(F)(F)F)cn2)CC1)N(CC1CC1)c1ccc(Cl)cc1 [Compound 145] was tested. Which pIC50 did it give?
**A.** Its pIC50 is 6.91.
